These results are taken from US20080300243A1, “Amide Derivatives as Ion-Channel Ligands and Pharmaceutical Compositions and Methods of Using the Same” (priority 2005, published 2008).

The target of the first assay is VR1 (Homo sapiens, UniProt Q8NER1). As to the kind of experiment: Calcium uptake assay, low pH (proton) stimulus. The format is cell-based. Set-up: expressed in transfected cells; host or cells: T-REx HEK 293 (Invitrogen), pcDNA5/TO vector. The settings on record: 0.3 μM compound; low pH agonist; HEK 293 cells expressing hVR1.
Chain of VR1 (Q8NER1 whole entry): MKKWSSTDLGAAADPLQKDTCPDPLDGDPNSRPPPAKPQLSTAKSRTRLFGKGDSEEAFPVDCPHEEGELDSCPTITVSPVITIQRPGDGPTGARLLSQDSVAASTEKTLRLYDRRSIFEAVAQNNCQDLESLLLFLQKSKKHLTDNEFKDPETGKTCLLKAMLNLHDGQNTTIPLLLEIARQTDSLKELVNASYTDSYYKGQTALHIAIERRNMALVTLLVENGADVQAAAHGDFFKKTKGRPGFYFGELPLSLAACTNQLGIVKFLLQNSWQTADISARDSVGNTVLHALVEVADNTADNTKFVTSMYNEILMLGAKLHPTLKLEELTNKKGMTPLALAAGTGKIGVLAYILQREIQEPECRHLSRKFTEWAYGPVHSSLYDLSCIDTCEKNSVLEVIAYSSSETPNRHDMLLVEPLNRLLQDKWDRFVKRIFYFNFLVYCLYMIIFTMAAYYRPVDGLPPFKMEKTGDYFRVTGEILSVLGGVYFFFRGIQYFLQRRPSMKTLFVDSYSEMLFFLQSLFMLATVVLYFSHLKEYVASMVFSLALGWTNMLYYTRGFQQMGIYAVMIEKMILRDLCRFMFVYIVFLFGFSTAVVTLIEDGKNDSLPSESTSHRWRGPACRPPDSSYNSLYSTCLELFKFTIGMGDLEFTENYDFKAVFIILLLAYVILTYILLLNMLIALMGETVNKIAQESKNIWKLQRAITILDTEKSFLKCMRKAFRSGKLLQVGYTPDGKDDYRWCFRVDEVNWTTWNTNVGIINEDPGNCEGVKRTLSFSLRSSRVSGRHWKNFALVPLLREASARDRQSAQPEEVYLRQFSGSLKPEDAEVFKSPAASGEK
Consider `CS(=O)(=O)OCC1COc2cc(NC(=O)c3ccc(C#CC4CCCC4)cc3)ccc2O1` (stereo not drawn) [Compound 116], for which the “Low pH % Inhib. @ 0.3 μM” value amounted to 10%.

The assay is the same for the next values; noted with them: HEK293; 0.3 μM compound; low pH agonist; HEK 293 cells expressing hVR1; read-out: Low pH % Inhib. @ 0.3 μM.
In the case of `Cc1cc(/C=C/C(F)(F)F)ccc1C(=O)Nc1ccc2cccnc2c1` [Compound 224], the inhibition at 0.3 µM turned out to be 82%.

As for `CN1CCOc2cc(NC(=O)c3ccc(/C=C/C(F)(F)F)cc3)ccc21` [Compound 73], the inhibition at 0.3 µM was 94%.

In the case of `CC(C)(C)/C=C/c1ccc(C(=O)Nc2cnc3ccccc3c2)cc1` [Compound 41], the inhibition at 0.3 µM turned out to be 101%.

Consider `O=C(Nc1ccc2c(c1)OCCN2)c1ccc(/C=C\C(F)(F)F)cc1F` [Compound 135], for which the inhibition at 0.3 µM is 29%.

In the case of `O=C(Nc1ccc2c(c1)OCCO2)c1ccc(/C=C/C(F)(F)F)cc1F` [Compound 142], the inhibition at 0.3 µM is 70%.

In the case of `Cc1nc2cc(NC(=O)c3ccc(C#CC(C)(C)C)cc3C)ccc2[nH]1` [Compound 215], the inhibition at 0.3 µM was 86%.

Regarding `O=C(Nc1ccc2c(c1)OCCO2)c1ccc(C#CC2CC2)cc1F` [Compound 145], the inhibition at 0.3 µM came out at 41%.

`Cc1nc2cc(NC(=O)c3ccc(C#CC(C)(C)C)cc3)ccc2s1` [Compound 56]: the inhibition at 0.3 µM is 104%.

As for `O=C(Nc1ccc2c(c1)NCCO2)c1ccc(C#CC2CCCC2)cc1` [Compound 106], the inhibition at 0.3 µM worked out at 5%.

As to `O=C(Nc1ccc2c(c1)OCC(CO)O2)c1ccc(/C=C/C(F)(F)F)cc1F` (stereo not drawn) [Compound 149], the inhibition at 0.3 µM stood at 71%.

For the compound `CC(C)/C=C/c1ccc(C(=O)Nc2ccc3c(c2)OCCO3)cc1` [Compound 8], the inhibition at 0.3 µM stood at 26%.

With `CC1=Cc2c(cccc2NC(=O)c2ccc(/C=C/C(F)(F)F)cc2)NN1` [Compound 113], the inhibition at 0.3 µM came out at 9%.

On to `CC1(C)Oc2cc(NC(=O)c3ccc(/C=C/C(F)(F)F)cc3)ccc2NC1=O` [Compound 71], for which the inhibition at 0.3 µM was determined as 10%.

Regarding `CC(C)(C)C#Cc1ccc(C(=O)Nc2ccc3c(c2)OCCN3)c(Cl)c1` [Compound 146], the inhibition at 0.3 µM was determined as 93%.

As for `Cc1nc2cc(NC(=O)c3ccc(/C=C/C(F)(F)F)cc3)ccc2s1` [Compound 53], the inhibition at 0.3 µM stood at 81%.

In the case of `CN1CCOc2ccc(NC(=O)c3ccc(/C=C/C(F)(F)F)cc3)cc21` [Compound 88], the inhibition at 0.3 µM turned out to be 48%.

`CC1(C)CNc2ccc(NC(=O)c3ccc(/C=C/C(F)(F)F)cc3)cc2O1` [Compound 72]: the inhibition at 0.3 µM turned out to be 124%.

Consider `CC(=CC(F)(F)F)c1ccc(C(=O)Nc2cccc3cnccc23)cc1` [Compound 76], for which the inhibition at 0.3 µM is 88%.

Take `O=C(Nc1ccc2c(c1)OCCN2)c1ccc(/C=C/C(F)(F)F)cc1Cl` [Compound 148]: the inhibition at 0.3 µM is 104%.

Regarding `Cc1cc(C#CC2CC2)ccc1C(=O)Nc1ccc2c(c1)OCCN2` [Compound 153], the inhibition at 0.3 µM was 104%.

Consider `Cc1cc(C#CC2CCCC2)ccc1C(=O)Nc1ccc2c(c1)OCCN2` [Compound 139], for which the inhibition at 0.3 µM came out at 95%.

In the case of `O=C(Nc1ccc2c(c1)OCCN2)c1c(F)cc(C#CC2CC2)cc1F` [Compound 130], the inhibition at 0.3 µM turned out to be 104%.

Regarding `Cc1cc(/C=C/C(F)(F)F)ccc1C(=O)Nc1cnc2c(c1)CNCC2` [Compound 229], the inhibition at 0.3 µM came to 54%.

Take `CC(C)(C)C#Cc1ccc(C(=O)Nc2cnc3ccccc3c2)cc1` [Compound 24]: the inhibition at 0.3 µM came to 101%.

On to `CC(C)(C)C#Cc1ccc(C(=O)Nc2ccc3c(c2)N(CCN2CCOCC2)CC3(C)C)cc1` [Compound 67], for which the inhibition at 0.3 µM turned out to be 8%.

For `O=C(Nc1ccc2c(c1)S(=O)(=O)C=C2)c1ccc(/C=C/C(F)(F)F)cc1` [Compound 92], the inhibition at 0.3 µM worked out at 71%.

For the compound `C/C(=C/C(C)(C)C)c1ccc(C(=O)Nc2ccc3ncccc3c2)cc1` [Compound 18], the inhibition at 0.3 µM came to 12%.

Take `Cc1cc(C#CC(C)(C)C)ccc1C(=O)Nc1cnc2cc(CO)ccc2c1` [Compound 216]: the inhibition at 0.3 µM was determined as 31%.

With `Cc1cc(C#CC2CC2)ccc1C(=O)Nc1ccc2c(c1)OCC(CO)O2` (stereo not drawn) [Compound 151], the inhibition at 0.3 µM was found to be 108%.
